# Reference: patent publication US11214594B2, “Antimicrobial peptide having synergistic antibacterial effect with antibiotics on multidrug resistant bacteria, and use thereof” (priority 2016, dated 2022)
# Where two headings read alike, the source gives them in different places. Where a SMILES comes first, the peptide text is derived from it.
# Experiments:
# MDRPA 2002 = format: cell-based, Pseudomonas aeruginosa
# In short: (§1)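 Broth microdilution in MH medium: bacterial strains diluted to 2×10^6 CFU were mixed with equal volumes of peptide serially diluted twofold in MH medium.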
# MDRPA 2003 = format: cell-based, Pseudomonas aeruginosa
# In short: as §1
# A. baumannii [1] = test: microbe, parasite or virus in culture; format: cell-based, Acinetobacter baumannii
# In short: as §1
# MDRAB 12035 [2] = test: microbe, parasite or virus in culture; format: cell-based, Acinetobacter baumannii
# In short: as §1
# B. subtilis = test: microbe, parasite or virus in culture; format: cell-based, Bacillus subtilis
# In short: as §1
# A. baumannii [3] = test: MIC of antibiotic during combined treatment with antimicrobial peptide; format: cell-based, Acinetobacter baumannii; settings: for Antibiotic MIC, Erythromycin / Antibiotic MIC, Linezolid / Antibiotic MIC, Vancomycin: A. baumannii
# In short: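 Read-out is the MIC of each combined solution, obtained from MH-medium dilutions of antibiotic added well by well, with a reversed-condition run as well.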
# MDRAB 12035 [4] = test: as above; format: cell-based, Acinetobacter baumannii
# In short: (§2)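 Strains in MH medium at 2×10^6 CFU/ml were mixed with peptide diluted stepwise (2:1) from its MIC, then antibiotic dilutions in MH medium were added to give the antibiotic MIC. The reversed set-up, peptide titrated against fixed antibiotic, gave the peptide MIC.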
# E. coli = format: cell-based, Escherichia coli; settings: E. coli
# In short: as §2
# MDREC 1229 = format: cell-based, Escherichia coli
# In short: as §2
# [5] = system: multi-drug resistant bacteria; test: MIC, summary statements for multi-drug resistant bacteria; format: cell-based
# Protocol: For the antibacterial activity, a minimal inhibitory concentration (MIC) of a peptide in which fungus bodies were not split in an MH medium with sufficient nutrients was measured.
# Specifically, the strains described in the following [Table 2] were purchased and diluted with an MH medium such that the number of bacteria was 2×10^6 colony-forming units (CFUs), 100 μl of each of the diluted strains was aliquoted into a 96-well microtiter plate, and then 100 μl of a peptide solution diluted with the MH medium (solution diluted stepwise at 2: 1) was added to each well.
# [6] = combined with peptide at 1 μg/ml
# [7] = combined with peptide at 2 μg/ml
# [8] = combined with peptide at 4 μg/ml
# [9] = combined with peptide at 6 μg/ml
# [10] = combined with peptide at 8 μg/ml
# [11] = combined with peptide at 16 μg/ml
# [12] = combined with peptide at 32 μg/ml
# [13] = combined with peptide at 64 μg/ml
# [14] = peptide treatment concentration 1 μg/ml
# [15] = peptide treatment concentration 2 μg/ml
# [16] = peptide treatment concentration 4 μg/ml
# [17] = peptide treatment concentration 6 μg/ml
# [18] = peptide treatment concentration 8 μg/ml
# [19] = peptide treatment concentration 16 μg/ml
# [20] = peptide treatment concentration 32 μg/ml
# [21] = peptide treatment concentration 64 μg/ml
structure (smiles),measurement,setting,value
"CC[C@H](C)[C@H](NC(=O)[C@H](CCCCN)NC(=O)[C@H](Cc1c[nH]c2ccccc12)NC(=O)[C@@H](N)CCCNC(=N)N)C(=O)N[C@@H](Cc1ccccc1)C(=O)N[C@@H](CCCCN)C(=O)N[C@@H](CCCCN)C(=O)N[C@H](C(=O)N1CCC[C@H]1C(=O)N[C@@H](CCCCN)C(=O)N[C@@H](CC(C)C)C(=O)N[C@@H](CC(C)C)C(=O)N[C@@H](Cc1c[nH]cn1)C(=O)N[C@@H](CCC(=O)O)C(=O)N[C@@H](Cc1ccccc1)C(=O)N[C@@H](CCCCN)C(=O)N[C@@H](CCCCN)C(=O)N[C@@H](Cc1ccccc1)C(N)=O)[C@@H](C)CC [PapMA-12, RWK IFK KIP KLL HEF KKF-NH2] (H-RWKIFKKIPKLLHEFKKF-NH2; N-terminus assumed)",Minimal inhibitory concentration MIC,MDRPA 2002,64 µg/mL
same,Minimal inhibitory concentration MIC,MDRPA 2003,64 µg/mL
same,Minimal inhibitory concentration MIC,A. baumannii [1],8 µg/mL
same,Antibacterial activity relative to PapMA-1,A. baumannii [1]; A. baumannii and S. typhimurium,at least twice as high
same,Minimal inhibitory concentration MIC,MDRAB 12035 [2],8 µg/mL
same,"Peptide MIC, peptide alone",MDRAB 12035 [2],8 µg/mL
same,Minimal inhibitory concentration MIC,B. subtilis,>128 µg/mL
same,Synergistic effect of antibacterial activity with existing antibiotics compared with PapMA-1,A. baumannii [3]; A. baumannii and MDRAB 12035,higher level than the PapMA-1 peptide
same,"Antibiotic MIC, Erythromycin",A. baumannii [3]; [6],16 µg/mL
same,"Antibiotic MIC, Linezolid",A. baumannii [3]; [6],128 µg/mL
same,"Antibiotic MIC, Vancomycin",A. baumannii [3]; [6],>128 µg/mL
same,"Antibiotic MIC, Erythromycin",A. baumannii [3]; [7],8 µg/mL
same,"Antibiotic MIC, Linezolid",A. baumannii [3]; [7],32 µg/mL
same,"Antibiotic MIC, Vancomycin",A. baumannii [3]; [7],64 µg/mL
same,"Antibiotic MIC, Erythromycin",A. baumannii [3]; [8],1 µg/mL
same,"Antibiotic MIC, Linezolid",A. baumannii [3]; [8],4 µg/mL
same,"Antibiotic MIC, Vancomycin",A. baumannii [3]; [8],8 µg/mL
same,"Antibiotic MIC, Erythromycin",A. baumannii [3]; [9],0.25 µg/mL
same,"Antibiotic MIC, Linezolid",A. baumannii [3]; [9],1 µg/mL
same,"Antibiotic MIC, Vancomycin",A. baumannii [3]; [9],2 µg/mL
same,"Antibiotic MIC, Erythromycin",A. baumannii [3]; [10],0 µg/mL
same,"Antibiotic MIC, Linezolid",A. baumannii [3]; [10],0 µg/mL
same,"Antibiotic MIC, Vancomycin",A. baumannii [3]; [10],0 µg/mL
same,"Antibiotic MIC, Erythromycin",A. baumannii [3]; [11],0 µg/mL
same,"Antibiotic MIC, Linezolid",A. baumannii [3]; [11],0 µg/mL
same,"Antibiotic MIC, Vancomycin",A. baumannii [3]; [11],0 µg/mL
same,"Antibiotic MIC, Erythromycin",A. baumannii [3]; [12],0 µg/mL
same,"Antibiotic MIC, Linezolid",A. baumannii [3]; [12],0 µg/mL
same,"Antibiotic MIC, Vancomycin",A. baumannii [3]; [12],0 µg/mL
same,"Antibiotic MIC, Erythromycin",A. baumannii [3]; [13],0 µg/mL
same,"Antibiotic MIC, Linezolid",A. baumannii [3]; [13],0 µg/mL
same,"Antibiotic MIC, Vancomycin",A. baumannii [3]; [13],0 µg/mL
same,Erythromycin MIC during combined treatment with peptide,MDRAB 12035 [4]; [14],16 µg/mL
same,Linezolid MIC during combined treatment with peptide,MDRAB 12035 [4]; [14],128 µg/mL
same,Vancomycin MIC during combined treatment with peptide,MDRAB 12035 [4]; [14],128 µg/mL
same,Erythromycin MIC during combined treatment with peptide,MDRAB 12035 [4]; [15],8 µg/mL
same,Linezolid MIC during combined treatment with peptide,MDRAB 12035 [4]; [15],64 µg/mL
same,Vancomycin MIC during combined treatment with peptide,MDRAB 12035 [4]; [15],64 µg/mL
same,Erythromycin MIC during combined treatment with peptide,MDRAB 12035 [4]; [16],2 µg/mL
same,Linezolid MIC during combined treatment with peptide,MDRAB 12035 [4]; [16],16 µg/mL
same,Vancomycin MIC during combined treatment with peptide,MDRAB 12035 [4]; [16],16 µg/mL
same,Erythromycin MIC during combined treatment with peptide,MDRAB 12035 [4]; [17],1 µg/mL
same,Linezolid MIC during combined treatment with peptide,MDRAB 12035 [4]; [17],8 µg/mL
same,Vancomycin MIC during combined treatment with peptide,MDRAB 12035 [4]; [17],4 µg/mL
same,Erythromycin MIC during combined treatment with peptide,MDRAB 12035 [4]; [18],0 µg/mL
same,Linezolid MIC during combined treatment with peptide,MDRAB 12035 [4]; [18],0 µg/mL
same,Vancomycin MIC during combined treatment with peptide,MDRAB 12035 [4]; [18],0 µg/mL
same,Erythromycin MIC during combined treatment with peptide,MDRAB 12035 [4]; [19],0 µg/mL
same,Linezolid MIC during combined treatment with peptide,MDRAB 12035 [4]; [19],0 µg/mL
same,Vancomycin MIC during combined treatment with peptide,MDRAB 12035 [4]; [19],0 µg/mL
same,Erythromycin MIC during combined treatment with peptide,MDRAB 12035 [4]; [20],0 µg/mL
same,Linezolid MIC during combined treatment with peptide,MDRAB 12035 [4]; [20],0 µg/mL
same,Vancomycin MIC during combined treatment with peptide,MDRAB 12035 [4]; [20],0 µg/mL
same,Erythromycin MIC during combined treatment with peptide,MDRAB 12035 [4]; [21],0 µg/mL
same,Linezolid MIC during combined treatment with peptide,MDRAB 12035 [4]; [21],0 µg/mL
same,Vancomycin MIC during combined treatment with peptide,MDRAB 12035 [4]; [21],0 µg/mL
same,Peptide MIC,E. coli; with Erythromycin […] (Conc./MIC 1),0 µg/mL
same,Peptide MIC,E. coli; with Linezolid […] (Conc./MIC 1),0 µg/mL
same,Peptide MIC,E. coli; with Vancomycin 1024 μg/ml (Conc./MIC 1),0 µg/mL
same,Peptide MIC during treatment with antibiotic,MDREC 1229; erythromycin 32 μg/ml (Conc./MIC 1/8),2 µg/mL
same,Peptide MIC during treatment with antibiotic,MDREC 1229; erythromycin 64 μg/ml (Conc./MIC 1/4),2 µg/mL
same,Peptide MIC during treatment with antibiotic,MDREC 1229; erythromycin […] (Conc./MIC 1),0 µg/mL
same,Peptide MIC during treatment with antibiotic,MDREC 1229; erythromycin […] (Conc./MIC 1/2),1 µg/mL
same,Peptide MIC during treatment with antibiotic,MDREC 1229; linezolid 64 μg/ml (Conc./MIC 1/8),4 µg/mL
same,Peptide MIC during treatment with antibiotic,MDREC 1229; linezolid 512 μg/ml (Conc./MIC 1),0 µg/mL
same,Peptide MIC during treatment with antibiotic,MDREC 1229; linezolid […] (Conc./MIC 1/2),1 µg/mL
same,Peptide MIC during treatment with antibiotic,MDREC 1229; linezolid […] (Conc./MIC 1/4),2 µg/mL
same,Peptide MIC during treatment with antibiotic,MDREC 1229; vancomycin 512 μg/ml (Conc./MIC 1/2),2 µg/mL
same,Peptide MIC during treatment with antibiotic,MDREC 1229; vancomycin 1024 μg/ml (Conc./MIC 1),1 µg/mL
same,Peptide MIC during treatment with antibiotic,MDREC 1229; vancomycin […] (Conc./MIC 1/4),4 µg/mL
same,Peptide MIC during treatment with antibiotic,MDREC 1229; vancomycin […] (Conc./MIC 1/8),4 µg/mL
same,Antibacterial activity relative to PapMA-1,[5],twice to four times higher
